Assay results published in paper PMC554093, “L-histidine inhibits production of lysophosphatidic acid by the tumor-associated cytokine, autotaxin” (Lipids in Health and Disease, 2005).

What was measured:
Format in all cases: biochemical
[1] = molecular target: T1, autotaxin (ATX, NPP-2, lysophospholipase D) (Homo sapiens, UniProt Q13822); experiment: LPLD enzyme kinetics (choline release), Km; design: gene ENPP2; recombinant human ATX (vATX)
[2] = molecular target: T1, autotaxin (ATX, NPP-2, lysophospholipase D); experiment: LPLD activity (choline release from LPC), […] compound, […] reduction; methyl on the alpha nitrogen; design: gene ENPP2; recombinant human ATX (vATX); conditions: read-out: % reduction at 15 mM
[3] = molecular target: T1, autotaxin (ATX, NPP-2, lysophospholipase D); experiment: LPLD activity (choline release from LPC) and PDE activity (pNp-TMP) with purified recombinant ATX; design: gene ENPP2; recombinant human ATX (vATX), cloned from an MDA-MB-435 cell library
[4] = molecular target: T1, autotaxin (ATX, NPP-2, lysophospholipase D); experiment: LPLD activity (choline release from LPC), […] compound, […] reduction; design: gene ENPP2; recombinant human ATX (vATX); conditions: read-out: % reduction at 15 mM
[5] = molecular target: T1, autotaxin (ATX, NPP-2, lysophospholipase D); experiment: LPLD activity (choline release from LPC), […] compound, about […] reduction; design: gene ENPP2; recombinant human ATX (vATX); conditions: read-out: % reduction at 15 mM
[6] = molecular target: T1, autotaxin (ATX, NPP-2, lysophospholipase D); experiment: as above; design: gene ENPP2; recombinant human ATX (vATX); conditions: read-out: % reduction at 15 mM; remark: listed apart in the source

Compound: LPC (18:1)
- Km [1]: 490 ± 50 µM

Compound: CN[C@@H](Cc1c[nH]cn1)C(=O)O [N-methyl histidine]
- inhibition at 15000 µM [2]: 30%

Compound: N[C@@H](Cc1c[nH]cn1)C(=O)O [L-histidine]
- IC50 [3]: 4 ± 1.1 mM

Compound: COC(=O)[C@@H](N)Cc1c[nH]cn1 [histidine methyl ester]
- inhibition at 15000 µM [4]: 65%

Compound: N[C@H](Cc1c[nH]cn1)C(=O)O [D-histidine]
- inhibition at 15000 µM [5]: ~75%

Compound: NC(=O)[C@@H](N)Cc1c[nH]cn1 [histidinamide]
- inhibition at 15000 µM [6]: ~20%
